From ChEMBL document CHEMBL5385847, “Design, synthesis and biological evaluation of a new class of 7H-pyrrolo[2,3-d]pyrimidine derivatives as Mps1 inhibitors for the treatment of breast cancer” (Eur J Med Chem, 2023)
Activity calls are given as the source filed them. No cut-off for these calls is given here.

Tests used:
MCF7 [1] = experiment: Antiproliferative activity against human MCF7 cells assessed as inhibition of cell viability upto 10 uM by MTT assay; assay type: functional, cell-based; details: time 24-72 hrs, TDE = time-dependent effect
[2] = molecular target: Proto-oncogene tyrosine-protein kinase Src (Homo sapiens) (UniProt P12931); experiment: Inhibition of human cSRC at 0.1 uM by KINOMEscan assay relative to control
4T1-Luc = experiment: Antitumor activity against mouse 4T1-Luc cells xenografted in BALB/C mouse assessed as reduction in tumor growth at 30 to 60 mg/kg, po qd measured after 10 days by IVIS analysis; assay type: functional, organism-based; details: dose 30-60 mg/kg, time 10.0 day
MDA-MB-231 = experiment: Antiproliferative activity against human MDA-MB-231 cells assessed as inhibition of cell viability upto 10 uM incubated for 72 hrs by MTT assay; assay type: functional, cell-based
MCF7 [3] = experiment: Induction of apoptosis in human MCF7 cells assessed as increase in cleaved caspase-3 level upto 3 uM incubated for 48 hrs by Western blot analysis; assay type: functional, cell-based
[4] = molecular target: Hepatocyte growth factor receptor (Homo sapiens) (UniProt P08581); experiment: Inhibition of human Met at 0.1 uM by KINOMEscan assay relative to control
4T1 [5] = experiment: Induction of apoptosis in 4T1 cells assessed as increase in cleaved caspase-3 level upto 3 uM incubated for 48 hrs by Western blot analysis; assay type: functional, cell-based; details: Mus musculus
AGS = experiment: Antiproliferative activity against human AGS cells assessed as inhibition of cell viability by MTT assay; assay type: functional, cell-based
[6] = Antitumor activity against mouse 4T1-Luc cells xenografted in BALB/C mouse assessed as reduction in mean tumor weight at 30 mg/kg, po qd treated for 15 days (reference value: 3.56 g); assay type: functional; details: time 15 day
[7] = molecular target: Angiopoietin-1 receptor (Homo sapiens) (UniProt Q02763); experiment: Inhibition of human Tie2 at 0.1 uM by KINOMEscan assay relative to control
MCF7 [8] = experiment: Induction of DNA damage in human MCF7 cells assessed as increase in gamma-H2AX level incubated for 2 hrs by Western blot analysis; assay type: functional, cell-based; details: dose <= 3.0 µM
MCF7 [9] = experiment: Antiproliferative activity against human MCF7 cells assessed as inhibition of cell viability incubated for 24 to 72 hrs by MTT assay; assay type: functional, cell-based; details: dose <= 10.0 µM, time 24-72 hrs
[10] = molecular target: T1, Dual specificity protein kinase TTK (Homo sapiens) (UniProt P33981); experiment: Inhibition of human Mps1 at 1 uM by KINOMEscan assay relative to control
T1 sequence (whole entry): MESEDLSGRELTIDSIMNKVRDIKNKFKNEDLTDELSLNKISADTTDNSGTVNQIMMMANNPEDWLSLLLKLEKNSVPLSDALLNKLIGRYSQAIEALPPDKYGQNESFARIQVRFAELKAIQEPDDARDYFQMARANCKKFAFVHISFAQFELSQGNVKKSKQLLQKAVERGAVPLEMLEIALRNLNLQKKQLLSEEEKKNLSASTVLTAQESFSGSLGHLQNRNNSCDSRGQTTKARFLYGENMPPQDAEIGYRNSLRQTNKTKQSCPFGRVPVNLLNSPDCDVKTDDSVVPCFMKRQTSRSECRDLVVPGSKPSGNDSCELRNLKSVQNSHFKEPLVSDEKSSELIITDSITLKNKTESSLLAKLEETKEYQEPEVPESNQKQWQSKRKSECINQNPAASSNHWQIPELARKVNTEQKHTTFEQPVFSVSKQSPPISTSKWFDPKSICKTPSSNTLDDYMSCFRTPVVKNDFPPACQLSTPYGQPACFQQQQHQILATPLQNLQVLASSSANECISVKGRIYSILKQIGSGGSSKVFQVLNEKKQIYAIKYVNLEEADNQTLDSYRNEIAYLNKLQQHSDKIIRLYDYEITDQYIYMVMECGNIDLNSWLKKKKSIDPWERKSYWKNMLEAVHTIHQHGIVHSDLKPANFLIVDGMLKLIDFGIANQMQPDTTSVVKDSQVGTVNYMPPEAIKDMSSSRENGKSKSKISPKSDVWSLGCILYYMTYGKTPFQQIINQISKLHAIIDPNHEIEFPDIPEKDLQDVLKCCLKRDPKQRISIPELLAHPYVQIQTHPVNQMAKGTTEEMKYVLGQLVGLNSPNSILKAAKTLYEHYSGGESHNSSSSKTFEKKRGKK

OVCAR-3 = experiment: Antiproliferative activity against human OVCAR-3 cells assessed as inhibition of cell viability by MTT assay; assay type: functional, cell-based
[11] = molecular target: Tyrosine-protein kinase Yes (Homo sapiens) (UniProt P07947); experiment: Inhibition of human Yes at 1 uM by KINOMEscan assay relative to control
4T1 [12] = experiment: Induction of apoptosis in 4T1 cells assessed as late apoptotic cells at 1 uM incubated for 48 hrs by Annexin V-FITC/PI staining based flow cytometry (reference value: 1.73 %); assay type: functional, Mus musculus
MCF7 [13] = experiment: Induction of apoptosis in human MCF7 cells assessed as late apoptotic cells at 5 uM incubated for 48 hrs by Annexin V-FITC/PI staining based flow cytometry (reference value: 0.63 %); assay type: functional
[14] = molecular target: T1, Dual specificity protein kinase TTK (Homo sapiens); experiment: Inhibition of human Mps1 at 0.1 uM by KINOMEscan assay relative to control
ES-2 [15] = experiment: Antiproliferative activity against human ES2 cells assessed as inhibition of cell viability by MTT assay; assay type: functional, cell-based
MCF7 [16] = experiment: Induction of apoptosis in human MCF7 cells assessed as late apoptotic cells at 0.5 uM incubated for 48 hrs by Annexin V-FITC/PI staining based flow cytometry (reference value: 0.63 %); assay type: functional
MCF7 [17] = experiment: Antiproliferative activity against human MCF7 cells assessed as inhibition of cell viability by MTT assay; assay type: functional, cell-based
MCF7 [18] = experiment: Induction of apoptosis in human MCF7 cells assessed as necrotic cells at 1 uM incubated for 48 hrs by Annexin V-FITC/PI staining based flow cytometry (reference value: 0.03 %); assay type: functional
MCF7 [19] = experiment: Induction of apoptosis in human MCF7 cells assessed as early apoptotic cells at 1 uM incubated for 48 hrs by Annexin V-FITC/PI staining based flow cytometry (reference value: 1.19 %); assay type: functional
ES-2 [20] = experiment: Antiproliferative activity against human ES2 cells assessed as inhibition of cell viability upto 10 uM incubated for 72 hrs by MTT assay; assay type: functional, cell-based
4T1 [21] = experiment: Induction of apoptosis in 4T1 cells assessed as increase in cleaved PARP level upto 3 uM incubated for 48 hrs by Western blot analysis; assay type: functional, cell-based; details: Mus musculus
MCF7 [22] = experiment: Induction of apoptosis in human MCF7 cells assessed as early apoptotic cells at 0.5 uM incubated for 48 hrs by Annexin V-FITC/PI staining based flow cytometry (reference value: 1.19 %); assay type: functional
4T1 [23] = experiment: Induction of apoptosis in 4T1 cells assessed as early apoptotic cells at 5 uM incubated for 48 hrs by Annexin V-FITC/PI staining based flow cytometry (reference value: 0.32 %); assay type: functional, Mus musculus
[24] = molecular target: Proto-oncogene tyrosine-protein kinase Src (Homo sapiens) (UniProt P12931); experiment: Inhibition of human cSRC at 1 uM by KINOMEscan assay relative to control
[25] = molecular target: Insulin-like growth factor 1 receptor (Homo sapiens) (UniProt P08069); experiment: Inhibition of human IGF-1R at 1 uM by KINOMEscan assay relative to control
Chain of Insulin-like growth factor 1 receptor (Homo sapiens) (P08069 31-736 limits assumed): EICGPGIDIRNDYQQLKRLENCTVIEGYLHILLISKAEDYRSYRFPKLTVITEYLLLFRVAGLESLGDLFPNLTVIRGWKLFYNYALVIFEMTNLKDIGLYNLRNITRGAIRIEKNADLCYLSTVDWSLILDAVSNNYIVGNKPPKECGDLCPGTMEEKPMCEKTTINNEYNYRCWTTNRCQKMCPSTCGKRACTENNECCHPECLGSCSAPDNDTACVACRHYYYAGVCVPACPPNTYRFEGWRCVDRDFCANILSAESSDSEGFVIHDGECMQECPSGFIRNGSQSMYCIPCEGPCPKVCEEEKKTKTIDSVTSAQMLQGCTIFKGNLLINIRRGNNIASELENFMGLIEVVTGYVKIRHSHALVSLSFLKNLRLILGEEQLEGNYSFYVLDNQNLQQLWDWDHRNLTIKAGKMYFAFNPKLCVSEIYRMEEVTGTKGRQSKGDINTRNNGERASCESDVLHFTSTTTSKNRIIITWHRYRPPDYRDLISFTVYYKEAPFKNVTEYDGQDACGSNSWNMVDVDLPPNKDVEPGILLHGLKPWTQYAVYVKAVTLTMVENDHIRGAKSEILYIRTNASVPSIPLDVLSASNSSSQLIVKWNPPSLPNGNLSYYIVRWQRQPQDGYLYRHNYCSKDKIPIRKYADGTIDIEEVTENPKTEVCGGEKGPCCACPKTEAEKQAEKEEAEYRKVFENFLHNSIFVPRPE
Chain of Insulin-like growth factor 1 receptor (Homo sapiens) (P08069 741-1367 limits assumed): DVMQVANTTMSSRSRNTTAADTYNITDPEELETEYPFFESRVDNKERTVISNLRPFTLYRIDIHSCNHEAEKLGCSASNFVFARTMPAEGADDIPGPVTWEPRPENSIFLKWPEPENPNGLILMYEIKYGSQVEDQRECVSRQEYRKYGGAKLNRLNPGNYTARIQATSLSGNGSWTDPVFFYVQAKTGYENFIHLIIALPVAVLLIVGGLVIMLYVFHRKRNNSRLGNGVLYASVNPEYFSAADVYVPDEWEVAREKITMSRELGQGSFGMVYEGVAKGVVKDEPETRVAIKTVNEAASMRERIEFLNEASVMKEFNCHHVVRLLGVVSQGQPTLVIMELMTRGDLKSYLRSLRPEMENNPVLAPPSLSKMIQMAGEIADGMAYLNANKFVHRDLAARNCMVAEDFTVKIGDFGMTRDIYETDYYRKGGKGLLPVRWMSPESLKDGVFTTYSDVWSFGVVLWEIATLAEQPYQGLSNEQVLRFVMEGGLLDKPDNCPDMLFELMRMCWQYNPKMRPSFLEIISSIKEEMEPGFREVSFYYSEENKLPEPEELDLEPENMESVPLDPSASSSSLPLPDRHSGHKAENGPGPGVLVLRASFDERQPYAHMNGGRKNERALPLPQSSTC

Chain of Proto-oncogene tyrosine-protein kinase Src (Homo sapiens) (P12931 2-536 limits assumed): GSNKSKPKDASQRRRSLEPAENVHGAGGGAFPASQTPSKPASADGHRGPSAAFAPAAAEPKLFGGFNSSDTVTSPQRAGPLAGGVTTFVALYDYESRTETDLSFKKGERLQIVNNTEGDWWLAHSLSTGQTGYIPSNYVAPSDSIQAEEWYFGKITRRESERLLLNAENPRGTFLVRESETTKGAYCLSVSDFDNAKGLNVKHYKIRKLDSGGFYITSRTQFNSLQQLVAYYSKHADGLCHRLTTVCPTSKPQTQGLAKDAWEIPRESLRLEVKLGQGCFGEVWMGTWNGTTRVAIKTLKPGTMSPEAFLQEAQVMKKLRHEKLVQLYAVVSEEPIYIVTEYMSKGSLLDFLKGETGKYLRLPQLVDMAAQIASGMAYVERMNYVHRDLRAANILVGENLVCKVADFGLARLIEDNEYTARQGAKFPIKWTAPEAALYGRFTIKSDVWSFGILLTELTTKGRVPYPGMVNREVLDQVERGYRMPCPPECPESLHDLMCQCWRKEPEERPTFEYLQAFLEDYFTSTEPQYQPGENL
Chain of Hepatocyte growth factor receptor (Homo sapiens) (P08581 whole entry): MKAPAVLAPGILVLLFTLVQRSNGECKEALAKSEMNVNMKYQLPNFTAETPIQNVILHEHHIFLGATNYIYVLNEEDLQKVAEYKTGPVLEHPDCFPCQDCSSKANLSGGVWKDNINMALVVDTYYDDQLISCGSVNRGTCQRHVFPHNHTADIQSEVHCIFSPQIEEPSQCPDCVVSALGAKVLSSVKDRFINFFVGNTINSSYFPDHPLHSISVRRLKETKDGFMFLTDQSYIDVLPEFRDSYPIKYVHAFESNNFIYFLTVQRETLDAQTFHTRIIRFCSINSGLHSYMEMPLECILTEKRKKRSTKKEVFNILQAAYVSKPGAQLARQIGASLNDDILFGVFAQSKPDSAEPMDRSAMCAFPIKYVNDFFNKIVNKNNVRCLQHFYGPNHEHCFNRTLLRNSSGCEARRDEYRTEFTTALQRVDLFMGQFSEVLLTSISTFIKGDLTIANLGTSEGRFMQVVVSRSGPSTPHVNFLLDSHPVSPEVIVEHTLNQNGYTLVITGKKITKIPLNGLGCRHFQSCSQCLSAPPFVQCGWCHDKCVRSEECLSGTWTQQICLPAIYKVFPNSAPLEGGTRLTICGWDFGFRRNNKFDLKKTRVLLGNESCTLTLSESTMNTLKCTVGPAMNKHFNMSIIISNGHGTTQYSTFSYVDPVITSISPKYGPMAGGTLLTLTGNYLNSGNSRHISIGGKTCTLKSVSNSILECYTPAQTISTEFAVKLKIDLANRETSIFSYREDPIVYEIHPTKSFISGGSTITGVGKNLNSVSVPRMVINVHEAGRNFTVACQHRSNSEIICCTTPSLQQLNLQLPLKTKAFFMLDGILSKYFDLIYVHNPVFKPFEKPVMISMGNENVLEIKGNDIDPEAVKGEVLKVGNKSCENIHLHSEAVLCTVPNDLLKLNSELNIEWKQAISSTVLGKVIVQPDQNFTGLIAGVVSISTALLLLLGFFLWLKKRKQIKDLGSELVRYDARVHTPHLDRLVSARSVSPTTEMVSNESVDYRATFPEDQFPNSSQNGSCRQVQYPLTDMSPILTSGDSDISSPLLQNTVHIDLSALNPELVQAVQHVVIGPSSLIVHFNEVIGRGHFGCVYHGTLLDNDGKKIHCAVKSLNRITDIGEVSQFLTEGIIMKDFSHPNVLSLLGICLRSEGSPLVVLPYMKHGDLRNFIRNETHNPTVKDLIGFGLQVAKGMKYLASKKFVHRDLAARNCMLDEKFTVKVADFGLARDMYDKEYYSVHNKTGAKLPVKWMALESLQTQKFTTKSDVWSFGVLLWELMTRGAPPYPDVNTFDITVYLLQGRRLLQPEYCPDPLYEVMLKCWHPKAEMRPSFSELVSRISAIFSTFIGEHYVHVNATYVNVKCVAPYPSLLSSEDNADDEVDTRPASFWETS
Chain of Tyrosine-protein kinase Yes (Homo sapiens) (P07947 2-543 limits assumed): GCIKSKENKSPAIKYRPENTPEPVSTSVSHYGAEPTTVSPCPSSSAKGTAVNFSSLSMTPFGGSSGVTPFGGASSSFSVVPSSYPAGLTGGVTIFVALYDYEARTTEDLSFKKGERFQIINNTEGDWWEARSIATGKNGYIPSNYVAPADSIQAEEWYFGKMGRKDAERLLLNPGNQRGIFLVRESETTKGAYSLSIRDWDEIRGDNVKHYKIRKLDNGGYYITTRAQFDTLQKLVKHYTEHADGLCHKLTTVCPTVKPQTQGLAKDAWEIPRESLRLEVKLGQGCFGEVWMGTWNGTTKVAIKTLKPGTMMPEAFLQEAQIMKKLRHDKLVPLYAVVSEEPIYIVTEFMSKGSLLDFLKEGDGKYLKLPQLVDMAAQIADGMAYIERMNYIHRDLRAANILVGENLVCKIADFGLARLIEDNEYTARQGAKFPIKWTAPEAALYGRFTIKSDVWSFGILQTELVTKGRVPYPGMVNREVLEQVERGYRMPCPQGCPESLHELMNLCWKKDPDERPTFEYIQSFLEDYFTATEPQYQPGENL
Chain of Angiopoietin-1 receptor (Homo sapiens) (Q02763 whole entry): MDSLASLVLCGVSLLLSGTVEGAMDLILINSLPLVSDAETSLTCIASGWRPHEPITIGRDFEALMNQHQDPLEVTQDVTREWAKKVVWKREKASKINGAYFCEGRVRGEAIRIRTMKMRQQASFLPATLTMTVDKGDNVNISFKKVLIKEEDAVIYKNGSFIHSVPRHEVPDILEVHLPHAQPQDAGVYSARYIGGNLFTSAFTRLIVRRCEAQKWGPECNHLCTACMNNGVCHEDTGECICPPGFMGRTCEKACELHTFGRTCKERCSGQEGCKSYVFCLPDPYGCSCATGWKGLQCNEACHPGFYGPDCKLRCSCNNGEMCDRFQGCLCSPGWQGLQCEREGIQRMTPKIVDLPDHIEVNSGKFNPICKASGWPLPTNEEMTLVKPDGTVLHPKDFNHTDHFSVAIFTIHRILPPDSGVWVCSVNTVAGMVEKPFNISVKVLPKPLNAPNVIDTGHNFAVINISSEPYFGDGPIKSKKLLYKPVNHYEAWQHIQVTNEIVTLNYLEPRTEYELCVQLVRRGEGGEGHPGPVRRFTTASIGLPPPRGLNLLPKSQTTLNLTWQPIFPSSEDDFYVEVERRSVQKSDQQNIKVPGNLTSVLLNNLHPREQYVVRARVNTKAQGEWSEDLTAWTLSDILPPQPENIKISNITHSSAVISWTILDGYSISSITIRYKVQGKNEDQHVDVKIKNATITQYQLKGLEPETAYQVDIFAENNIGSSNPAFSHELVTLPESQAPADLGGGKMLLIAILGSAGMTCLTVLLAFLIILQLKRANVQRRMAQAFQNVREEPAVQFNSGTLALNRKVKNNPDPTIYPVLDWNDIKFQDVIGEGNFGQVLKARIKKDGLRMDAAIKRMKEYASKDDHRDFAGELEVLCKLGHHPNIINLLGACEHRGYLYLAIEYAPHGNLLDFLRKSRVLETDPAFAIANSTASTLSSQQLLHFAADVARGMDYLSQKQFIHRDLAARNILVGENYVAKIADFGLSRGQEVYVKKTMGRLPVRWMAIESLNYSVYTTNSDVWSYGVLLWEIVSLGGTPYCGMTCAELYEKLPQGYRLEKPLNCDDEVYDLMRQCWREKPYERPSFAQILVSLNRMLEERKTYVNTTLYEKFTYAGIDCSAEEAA

Compound: CN1CCN(c2ccc(Nc3nc(-n4nc(N)c5ccccc54)c4cc[nH]c4n3)cc2)CC1
- inhibition (MCF7 [1]): Tde
- inhibition [2]: 52%
- Activity (4T1-Luc): Active
- inhibition (MDA-MB-231): Active
- Activity (MCF7 [3]): Active
- inhibition [4]: 53%
- Activity (4T1 [5]): Active
- IC50 (AGS): > 3 µM
- Activity [6]: 1.4 g
- inhibition [7]: 28%
- Activity (MCF7 [8]): Dose-Dependent Effect
- inhibition (MCF7 [9]): Dose-Dependent Effect
- inhibition [10]: > 90%
- IC50 (OVCAR-3): > 3 µM
- inhibition [11]: 100%
- Activity (4T1 [12]): 5.58%
- Activity (MCF7 [13]): 17.53%
- inhibition [14]: 87%
- IC50 (ES-2 [15]): > 3 µM
- Activity (MCF7 [16]): 4.51%
- IC50 (MCF7 [17]): 0.37 µM
- Activity (MCF7 [18]): 0.26%
- Activity (MCF7 [19]): 6.54%
- inhibition (ES-2 [20]): Active
- Activity (4T1 [21]): Active
- Activity (MCF7 [22]): 6.55%
- Activity (4T1 [23]): 2.71%
- inhibition [24]: 96%
- inhibition [25]: 98%
